Results reported in patent US20240239799A1, “(S)-1-(5-((PYRIDIN-3-YL)THIO)PYRAZIN-2-YL)-4'H,6'H-SPIRO[PIPERIDINE-4,5'-PYRROLO [1,2-B]PYRAZOL]-4'-AMINE DERIVATIVES AND SIMILAR COMPOUNDS AS SHP2 INHIBITORS FOR THE TREATMENT OF E.G. CANCER” (C.N.C.C.S. S.C.A.R.L. COLLEZIONE NAZIONALE DEI COMPOSTI …, priority 2021, published 2024).
Like-named read-outs stand apart in the source and are kept apart here.

Tests used:
[1] = target: T1, SHP2 (Avi-G4SG4S-PTPN11(1-525)) (Homo sapiens, UniProt Q06124); test: Binding kinetic assay by surface plasmon resonance (SPR); conditions: Biacore T200, single cycle kinetic, 1:1 Langmuir binding model; for koff: triplicate
T1 construct: (Avi-G4SG4S-PTPN11(1-525)); purchased Viva Biotech Ltd
T1 sequence (Q06124 1-525): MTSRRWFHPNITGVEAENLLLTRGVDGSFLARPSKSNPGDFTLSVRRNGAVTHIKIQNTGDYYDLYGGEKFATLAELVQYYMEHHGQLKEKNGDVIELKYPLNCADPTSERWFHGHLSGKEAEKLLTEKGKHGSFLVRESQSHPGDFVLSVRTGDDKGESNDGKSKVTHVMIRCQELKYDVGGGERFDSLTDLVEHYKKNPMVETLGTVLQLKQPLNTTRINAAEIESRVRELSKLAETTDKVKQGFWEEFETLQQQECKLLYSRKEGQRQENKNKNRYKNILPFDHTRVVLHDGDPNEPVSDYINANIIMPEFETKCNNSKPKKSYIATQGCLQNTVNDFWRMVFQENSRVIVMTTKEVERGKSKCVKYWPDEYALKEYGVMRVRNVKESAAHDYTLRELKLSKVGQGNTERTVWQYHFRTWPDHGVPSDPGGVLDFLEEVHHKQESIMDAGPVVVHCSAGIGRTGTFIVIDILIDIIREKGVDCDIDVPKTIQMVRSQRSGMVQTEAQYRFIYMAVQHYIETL
Procedure: A binding assay for measuring SHP2 inhibitors binding kinetic was developed using a Biacore T200 Instrument (Cytiva, Sweden). […] Data analysis was performed by Biacore T200 Evaluation software (Cytiva), and kinetic parameters were evaluated by a global fitting according to a 1:1 Langmuir binding model. Each molecule was tested in triplicate on separate flow channels.

[2] = target: T2, SHP-2 enzyme (Met1-Leu525) (Homo sapiens, UniProt Q06124); test: SHP2 inhibition enzymatic assay (DiFMUP substrate, IRS1 peptide activation); type: biochemical; conditions: 0.5 nM SHP-2, 500 nM IRS1 peptide, 75 μM DiFMUP; read-out: SHP2wt - IC50
T2 construct: synthetized by Origene, Met1-Leu525, cat #TP750155; purchased Origene TP750155
T2 sequence (Q06124 1-525): T1 sequence (Q06124 1-525)

[3] = tested on: phospho-ERK1/2 (Thr202/Tyr204) in KYSE-520 cells; test: Phospho-ERK cellular assay (TR-FRET); type: cell-based; conditions: KYSE-520 cells, 2 h at 37° C., read-out: pERK IC50
In short: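 KYSE-520 cells plated overnight, then exposed to compound for 2 h at 37° C and lysed. Phospho-ERK1/2 (Thr202/Tyr204) detected by TR-FRET with Eu-cryptate and D2 antibodies after overnight incubation at rt. IC50 from four-parameter fit, normalised to DMSO (0%) and no-cell (100%) controls.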

SMILES | Residence time 1/koff SPR [1] [s] | koff [1] [s⁻¹] | IC50 [2] [nM] | IC50 ([3]; Homo sapiens, KYSE-520, 2 h) [nM] | IC50 [3] [nM]
N[C@@H]1c2c(F)cnn2CC12CCN(c1cnc(Sc3ccn4ccnc4c3Cl)cn1)CC2 [Example 49, (S)-1-(5-((8-chloroimidazo[1,2-a]pyridin-7-yl)thio)pyrazin-2-yl)-3′-fluoro-4′H,6′H-spiro[piperidine-4,5′-pyrrolo[1,2-b]pyrazol]-4′-amine] | 14493 | 6.9e-05 | ≤ 50 | < 100 | 
Cc1cc2n(n1)CC1(CCN(c3ncc(Sc4ccnc(N)c4Cl)n4cncc34)CC1)[C@@H]2N [Example 23, (S)-1-(5-((2-amino-3-chloropyridin-4-yl)thio)imidazo[1,5-a]pyrazin-8-yl)-2′-methyl-4′H,6′H-spiro[piperidine-4,5′-pyrrolo[1,2-b]pyrazol]-4′-amine] | 6536 | 0.000153 | ≤ 50 | < 100 | 
Nc1nccc(Sc2cnc(N3CCC4(CC3)Cn3nncc3[C@H]4N)cn2)c1Cl [Example 38, (S)-1-(5-((2-amino-3-chloropyridin-4-yl)thio)pyrazin-2-yl)-4′H,6′H-spiro[piperidine-4,5′-pyrrolo[1,2-c][1,2,3]triazol]-4′-amine] | 1062 | 0.000942 | ≤ 50 | < 100 | 
Nc1nc(N2CCC3(CC2)Cn2ncc(Cl)c2[C@H]3N)cnc1Sc1ccnc(N)c1Cl [Example 5, (S)-1-(6-amino-5-((2-amino-3-chloropyridin-4-yl)thio)pyrazin-2-yl)-3′-chloro-4′H,6′H-spiro[piperidine-4,5′-pyrrolo[1,2-b]pyrazol]-4′-amine] | 17007 | 5.88e-05 | ≤ 50 | < 100 | 
Cn1cc2c(Cl)c(Sc3cnc(N4CCC5(CC4)Cn4nccc4[C@H]5N)n4ccnc34)ccc2n1 [Example 16, (S)-1-(8-((4-chloro-2-methyl-2H-indazol-5-yl)thio)imidazo[1,2-c]pyrimidin-5-yl)-4′H,6′H-spiro[piperidine-4,5′-pyrrolo[1,2-b]pyrazol]-4′-amine] | 16026 | 6.24e-05 | ≤ 50 | < 100 | 
Nc1nccc(Sc2cnc(N3CCC4(CC3)Cn3nccc3[C@H]4N)cn2)c1Cl [Example 6, (S)-1-(5-((2-amino-3-chloropyridin-4-yl)thio)pyrazin-2-yl)-4′H,6′H-spiro[piperidine-4,5′-pyrrolo[1,2-b]pyrazol]-4′-amine] | 2740 | 0.000365 | ≤ 50 | < 100 | 
Nc1nccc(Sc2cnc(N3CCC4(CC3)Cn3nccc3[C@H]4N)c3cncn23)c1Cl [Example 19, (S)-1-(5-((2-amino-3-chloropyridin-4-yl)thio)imidazo[1,5-a]pyrazin-8-yl)-4′H,6′H-spiro[piperidine-4,5′-pyrrolo[1,2-b]pyrazol]-4′-amine] | 5464 | 0.000183 | ≤ 50 | < 100 | 
Cc1nn2c(c1Cl)[C@@H](N)C1(CCN(c3cnc(Sc4ccnc(N)c4Cl)cn3)CC1)C2 [Example 14, (S)-1-(5-((2-amino-3-chloropyridin-4-yl)thio)pyrazin-2-yl)-3′-chloro-2′-methyl-4′H,6′H-spiro[piperidine-4,5′-pyrrolo[1,2-b]pyrazol]-4′-amine] | 14535 | 6.88e-05 | ≤ 50 | < 100 | 
N[C@@H]1c2ccnn2CC12CCN(c1cnc(Sc3ccn4ccnc4c3Cl)cn1)CC2 [Example 31, (S)-1-(5-((8-chloroimidazo[1,2-a]pyridin-7-yl)thio)pyrazin-2-yl)-4′H,6′H-spiro[piperidine-4,5′-pyrrolo[1,2-b]pyrazol]-4′-amine] | 12674 | 7.89e-05 | ≤ 50 | < 100 | 
Nc1nccc(Sc2cnc(N3CCC4(CC3)Cn3nc5c(c3[C@H]4N)COC5)c3cncn23)c1Cl [Example 29, (S)-1′-(5-((2-amino-3-chloropyridin-4-yl)thio)imidazo[1,5-a]pyrazin-8-yl)-1,8-dihydro-3H,6H-spiro[furo[3,4-d]pyrrolo[1,2-b]pyrazole-7,4′-piperidin]-8-amine] | 1715 | 0.000583 | ≤ 50 | > 500 | 
Cc1nc(N2CCC3(CC2)Cn2nccc2[C@H]3N)c(Cl)c(=O)n1-c1cccc(Cl)c1Cl [Example 78, (S)-6-(4′-amino-4′H,6′H-spiro[piperidine-4,5′-pyrrolo[1,2-b]pyrazol]-1-yl)-5-chloro-3-(2,3-dichlorophenyl)-2-methylpyrimidin-4(3H)-one] |  |  | ≤ 50 | 100 to 500 | 
Cc1nc(N2CCC3(CC2)Cn2nccc2[C@H]3N)cc(=O)n1-c1cccc(Cl)c1Cl [Example 77, (S)-6-(4′-amino-4′H,6′H-spiro[piperidine-4,5′-pyrrolo[1,2-b]pyrazol]-1-yl)-3-(2,3-dichlorophenyl)-2-methylpyrimidin-4(3H)-one] |  |  | ≤ 50 | 100 to 500 | 
N[C@@H]1c2ccnn2CC12CCN(c1cnc(Sc3ccncc3Cl)cn1)CC2 [Example 80, (S)-1-(5-((3-chloropyridin-4-yl)thio)pyrazin-2-yl)-4′H,6′H-spiro[piperidine-4,5′-pyrrolo[1,2-b]pyrazol]-4′-amine] |  |  | ≤ 50 | < 100 | 
N[C@@H]1c2ccnn2CC12CCN(c1ncc(Sc3ccnc4c3OC[C@@H]3CCCN43)c3nccn13)CC2 [Example 17, (S)-1-(8-(((S)-6a,7,8,9-tetrahydro-6H-pyrido[3,2-b]pyrrolo[1,2-d][1,4]oxazin-4-yl)thio)imidazo[1,2-c]pyrimidin-5-yl)-4′H,6′H-spiro[piperidine-4,5′-pyrrolo[1,2-b]pyrazol]-4′-amine] |  |  | ≤ 50 | < 100 | 
N[C@@H]1c2cnnn2CC12CCN(c1cnc3c(-c4cccc(Cl)c4Cl)n[nH]c3n1)CC2 [Example 41, (S)-1-(3-(2,3-dichlorophenyl)-1H-pyrazolo[3,4-b]pyrazin-6-yl)-4′H,6′H-spiro[piperidine-4,5′-pyrrolo[1,2-c][1,2,3]triazol]-4′-amine] |  |  | ≤ 50 | > 500 | 
Nc1nccc(Sc2ncc(N3CCC4(CC3)Cn3nccc3[C@H]4N)n3cncc23)c1Cl [Example 30, (S)-1-(8-((2-amino-3-chloropyridin-4-yl)thio)imidazo[1,5-a]pyrazin-5-yl)-4′H,6′H-spiro[piperidine-4,5′-pyrrolo[1,2-b]pyrazol]-4′-amine] |  |  | > 300 | > 500 | 
Nc1nc(N2CCC3(CC2)Cn2nccc2[C@H]3N)cnc1Sc1ccnc(-n2cccn2)c1Cl [Example 60, (S)-1-(6-amino-5-((3-chloro-2-(1H-pyrazol-1-yl)pyridin-4-yl)thio)pyrazin-2-yl)-4′H,6′H-spiro[piperidine-4,5′-pyrrolo[1,2-b]pyrazol]-4′-amine] |  |  | ≤ 50 | < 100 | 
NC(=O)c1ccn(-c2nccc(Sc3cnc(N4CCC5(CC4)Cn4nccc4[C@H]5N)cn3)c2Cl)c1 [Example 66, (S)-1-(4-((5-(4′-amino-4′H,6′H-spiro[piperidine-4,5′-pyrrolo[1,2-b]pyrazol]-1-yl)pyrazin-2-yl)thio)-3-chloropyridin-2-yl)-1H-pyrrole-3-carboxamide] |  |  | ≤ 50 | < 100 | 
Nc1nccc(Sc2cnc(N3CCC4(CC3)Cn3cnnc3[C@H]4N)cn2)c1Cl [Example 42, (S)-1-(5-((2-amino-3-chloropyridin-4-yl)thio)pyrazin-2-yl)-5′H,7′H-spiro[piperidine-4,6′-pyrrolo[2,1-c][1,2,4]triazol]-7′-amine] |  |  | 50 to 300 | > 500 | 
Nc1nccc(Sc2cnc3[nH]c(N4CCC5(CC4)Cn4nccc4[C@H]5N)nc3n2)c1Cl [Example 2, (S)-1-(5-((2-amino-3-chloropyridin-4-yl)thio)-1H-imidazo[4,5-b]pyrazin-2-yl)-4′H,6′H-spiro[piperidine-4,5′-pyrrolo[1,2-b]pyrazol]-4′-amine] |  |  | ≤ 50 | > 500 | 
Cc1nc(N2CCC3(CC2)Cn2nccc2[C@H]3N)c(Cl)c(=O)n1-c1cccc(Cl)c1Cl (single isomer, unassigned) [Example 78a] |  |  | ≤ 50 |  | 100 to 500
